In assay [1] the target is T1, human α4β2 subtype of nicotinic acetylcholine receptors (Homo sapiens, UniProt P17787+P43681).
T1 construct: expressed in transfected cells; host or cells: Xenopus laevis oocytes injected with hnACh-R α4 and β2 cRNA (pSP64 polyA vector)
Format: cell-based. The method, then: The agonist effect in human α4β2 subtype of nicotinic acetylcholine receptors are examined by using human nicotinic acetylcholine receptors prepared in oocytes of Xenopus laevis, which is injected with cRNA from the corresponding cloning cDNA of human α4 and β2 subunits of nicotinic acetylcholine receptors, and to measure the expression of the electric response by adding the test compounds to perfusion solution by means of membrane potential holding method.
Agonist Activities at Human α4β2 Subtype of Nicotinic Acetylcholine Receptors
The agonist activities of the compounds of the present invention at human α4β2 subtype of nicotinic acetylcholine receptors was evaluated by the following method, which was modified method described by Papke R. L., Thinschmidt J. S., Moulton B. A., Meyer E. M. & Poirier A., Br. J. Pharmacol., 120, 429-438 (1997).
(1) Preparation of cRNA of Human α4β2 Subtype of Nicotinic Acetylcholine Receptors
The cloning of human nicotinic acetylcholine receptor (hnACh-R) α4 cDNA and hnAC-R β2 cDNA were performed, in accordance with the conventional manners, by synthesizing the each DNA primers corresponding to the sequences of hnACh-R α4 cDNA and hnACh-R β2 cDNA [Monteggia L. M. et al., Gene, 155, 189-193 (1995); and Anand R., & Lindstrom J., Nucl. Acids Res., 18, 4272 (1990)], and obtained hnACh-R α4 cDNA and hnACh-R β2 cDNA by polymerase chain reaction (PCR), respectively. The obtained hnACh-R α4 cDNA and hnACh-R β2 cDNA were inserted to the cRNA expression vector (pSP64 polyA) having SP6 RNA promoter to construct hnACh-R α4/pSP64 polyA and hnACh-R β2/pSP64 polyA, respectively. After cutting from expression vector by restriction enzyme (EcoRI), transcription was performed by affecting SP6 RNA polymerase in the presence of cap analogues to obtain hnACh-R α4 cRNA and hnACh-R β2 cRNA, respectively.
(2) Expression of Human α4β2 Subtype Nicotinic Acetylcholine Receptors in Xenopus Oocytes
Oocytes were purchased from Kitanihonseibustukyohzai Co., Ltd., which were already enucleated from Xenopus laevis, and used in this experiment.
The oocytes were treated with collagenase (Sigma type I; 1 mg/ml) in calcium-free modified Birth's solution (88 mM of NaCl, 1 mM of KCl, 2.4 mM of NaHCO3, 0.82 mM of MgSO4, 15 mM of HEPES, pH 7.6) under gently stirring at the room temperature for 90 minutes, and washed out the enzyme from the tissue. Then, oocytes were separated from ovarian follicle by tweezers, and isolated oocytes were placed in antibiotics containing modified Birth's solution (88 mM of NaCl, 1 mM of KCl, 2.4 mM of NaHCO3, 0.82 mM of MgSO4, 15 mM of HEPES, pH 7.6, and 0.1 v/v % of mixture solution containing of penicillin and streptomycin for incubation; Sigma Co.). Thus treated oocytes were injected with 50 nl of adjusted cRNAs (1.0 mg/ml), that is, each 50 ng of hnACh-R α4 cRNA and hnACh-R β2 cRNA per 1 oocyte by using automatic injector (NANOJECT; DRUMMOND […] CO.), and further incubated for 4-14 days at 19° C. In oocytes, heterogeneous quintuple [(α4)2(β2)3] was composed by translation of injected cRNAs, and ion channel receptors were constructed on cell membrane.
(3) Agonist Activities at Human α4β2 Subtype of Nicotinic Acetylcholine Receptors
The recordings of responses at human α4β2 subtype of nicotinic acetylcholine receptors by means of membrane potential holding method were performed as follow. […] Test compounds were added to the perfusion solution, and recorded the peak strength of induced inward electric current. […]

Assay [2] concerns the target T2, α1β1γδ subtype of nicotinic acetylcholine receptors (Rattus norvegicus, UniProt P18916+P25108+P25109+P25110).
T2 construct: The centrifugation at 100,000×G for 60 minutes at 4° C. yielded the rat muscle extract as supernatant
Nature of the assay: biochemical. The assay is classed as binding. From the text:
(§1) The methods for evaluating the binding capabilities of the compounds against nicotinic acetylcholine receptors are different by subtypes of receptors. The binding capabilities of the compounds at α4β2 nicotinic acetylcholine receptors are examined using rat brain membrane obtained from whole homogenized brain, and determining the inhibiting rate of the compounds against [^3H]-cytisine binding to said brain membrane. Furthermore, the binding capabilities of the compounds at α1β1γδ nicotinic acetylcholine receptors are examined using homogenized rat muscle, and determining the inhibiting rate of the compounds against [^3H]-α-bungarotoxin binding to said muscle membrane.
Binding Assays at α1β1γδ Subtype of Nicotinic Acetylcholine Receptors
The affinity of the compounds of the present invention to α1β1γδ subtype of nicotinic acetylcholine receptors was measured by the following method, which was modified method described by Garcha H. S., Thomas P., Spivak C.
(1) Preparation of Rat Skeletal Muscles Containing α1β1γδ Subtype of Nicotinic Acetylcholine Receptors
The substantially same animals described in the Biological Experiment 1 were used.
The isolation of α1β1γδ subtype of nicotinic acetylcholine receptors was performed as follow. That is, rat posterior skeletal muscles were isolated just after sacrificed by decapitation, washed with ice-cooled saline solution and then frozen at −80° C. with liquid nitrogen and stored till using. After thawing the frozen muscles, tissue was homogenized (40% w/v) with buffer solution [2.5 mM of sodium phosphate buffer (pH:7.2), 90 mM of NaCl, 2 mM of KCl, 1 mM of EDTA, 2 mM of benzamidine, 0.1 mM of benzethonium chloride, 0.1 mM of PMSF, 0.01% of sodium azide] in Waring blender [Waring blender 34BL97; WARING PRODUCTS DIVISION DYNAMICS CORPORATION OF AMERICA) for 60 seconds. The homogenate were centrifuged under 20,000×G for 60 minutes at 4° C. The supernatant was separated and the resulting pellet was added to the same buffer (1.5 ml/g wet weight), and homogenized under the same conditions. Triton X100 (2% w/v) was added and the mixture was stirred for 3 hours at 4° C. The centrifugation at 100,000×G for 60 minutes at 4° C. yielded the rat muscle extract as supernatant. This was stored at 4° C. for up to 4 weeks, and used for binding assays at receptors.
(2) Experiments of α1β1γδ Subtype of Nicotinic Acetylcholine Receptors Binding
Receptors binding experiments were performed as follow. That is, the extract of rat muscle containing 600-900 μg of protein was added to test tubes containing test compounds and incubated for 15 minutes at 37° C. Then, to this mixture was added 1 nM of [^3H]-α-bungarotoxin (α-Bgt) and further incubated for 2 hours. The samples were isolated by vacuum filtration onto Whatman GF/B filters, which were prerinsed with 0.5% polyethylenimine just prior to sample filtration, using Brandel multi manifold cell harvester. The filters were rapidly rinsed with washing solution (10 mM of KH2PO4, 150 mM of NaCl, pH 7.2, room temperature) (5×1 ml). The filters were counted in 3 ml of clearsol I (Nacalai Tesque Inc.). The determination of nonspecific binding was incubated in the presence of 1 μM α-Bgt. […] In the receptor binding experiments, said buffer solution was added for adjusting the final concentration of BSA to be 0.05%.
The analyses of the experimental results were conducted by as described in the Biological Experiment 1.

For assay [3], the target named is T3, α4β2 subtype of nicotinic acetylcholine receptors (Rattus norvegicus, UniProt P09483+P12390).
T3 construct: examined using rat brain membrane obtained from whole homogenized brain; from tissue; host or cells: whole brain membranes of Fischer-344 male rats
Briefly: Binding assay at α4β2 subtype of nicotinic acetylcholine receptors ([3H]-cytisine, rat brain membrane).
Text: as §1
Binding Assays at α4β2 Subtype of Nicotinic Acetylcholine Receptors
The affinity of the compounds of the present invention to α4β2 subunit of nicotinic acetylcholine receptors was performed by the following method, which was modified method described by Pabreza L. A., Dhawan S. & Kellar K. J., Mol. Pharm., 39, 9-12 (1990), and by Anderson D. J. & Arneric S. P., Eur. J. Pharm., 253, 261-267 (1994).
(1) Preparation of Rat Brain Membrane Containing α4β2 subtype of Nicotinic Acetylcholine Receptors
Fischer-344 strain male rats (body weight: 200-240 g; 9 weeks old) obtained from Charles River Japan were used. Rats were housed in the breeding cage controlled of the room temperature at 23±1° C., and the humidity of 55±5% for 1 to 4 weeks. Rats (3 to 4 rats per a cage) were housed with lights on for 12 hours daily (from 7:00 to 19:00), and allowed free access to food and water.
Preparation of rat brain membrane containing α4β2 subtype of nicotinic acetylcholine receptors was performed as follow. That is, rat brains were isolated just after sacrificed by decapitation, washed with ice-cooled saline solution and then frozen at −80° C. with liquid nitrogen and stored till using. After thawing the frozen brain, the brain was homogenized in 10 volumes of buffer solution (50 mM of Tris-HCl, 120 mM of NaCl, 5 mM of KCl, 1 mM of MgCl2, 2mM of CaCl2; pH 7.4; 4° C.) using homogenizer (HG30, Hitachi Kohki Ltd.) for 30 seconds, and the homogenate were centrifuged under 1,000×G for 10 minutes at 4° C. The resulting supernatant was separated and the pellet was homogenized again with half volume of aforementioned prior buffer solution and centrifuged under the same conditions. Combined supernatant was further centrifuged under 40,000×G for 20 minutes at 4° C. The pellet was suspended in buffer solution and used for binding assays at receptors.
(2) Experiments of α4β2 Subtype of Nicotinic Acetylcholine Receptors Binding
Suspensions of membrane pellets containing 400-600 μg of protein were added to test tubes containing test compounds and [^3H]-cytisine (2 nM) in a final volume of 200 μl and incubated for 75 minutes in ice-cooled bath. The samples were isolated by vacuum filtration onto Whatman GF/B filters, which were prerinsed with 0.5% polyethylenimine just prior to sample filtration, using Brandel multi manifold cell harvester. The filters were rapidly washed with buffer solution (3×1 ml). The filters were counted in 3 ml of clearsol I (Nacalai Tesque Inc.).
The analyses of the experimental results were conducted by using the Accufit Competition Program (Beckman Ltd.).

Molecules are shown by their SMILES.

The source of these data is patent US6900202B2, “Di-substituted imineheterocyclic compounds” (priority 2000, dated 2005).

T3 sequence (P09483 31-630): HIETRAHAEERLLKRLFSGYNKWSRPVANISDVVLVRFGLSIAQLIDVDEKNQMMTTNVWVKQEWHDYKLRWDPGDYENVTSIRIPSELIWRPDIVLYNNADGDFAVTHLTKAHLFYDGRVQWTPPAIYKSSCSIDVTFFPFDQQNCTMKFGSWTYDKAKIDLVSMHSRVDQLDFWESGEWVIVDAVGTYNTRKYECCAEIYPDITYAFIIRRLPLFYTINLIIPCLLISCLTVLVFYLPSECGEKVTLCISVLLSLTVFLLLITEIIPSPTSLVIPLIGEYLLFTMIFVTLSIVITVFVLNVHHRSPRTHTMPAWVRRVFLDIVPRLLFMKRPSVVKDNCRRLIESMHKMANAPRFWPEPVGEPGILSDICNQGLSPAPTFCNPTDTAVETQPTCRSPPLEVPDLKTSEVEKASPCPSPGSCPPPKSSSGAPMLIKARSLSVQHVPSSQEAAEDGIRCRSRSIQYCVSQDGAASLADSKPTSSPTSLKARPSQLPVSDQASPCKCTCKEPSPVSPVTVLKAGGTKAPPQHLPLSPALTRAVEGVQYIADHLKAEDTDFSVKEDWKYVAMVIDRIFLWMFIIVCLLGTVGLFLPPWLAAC
T3 sequence (P12390 25-500): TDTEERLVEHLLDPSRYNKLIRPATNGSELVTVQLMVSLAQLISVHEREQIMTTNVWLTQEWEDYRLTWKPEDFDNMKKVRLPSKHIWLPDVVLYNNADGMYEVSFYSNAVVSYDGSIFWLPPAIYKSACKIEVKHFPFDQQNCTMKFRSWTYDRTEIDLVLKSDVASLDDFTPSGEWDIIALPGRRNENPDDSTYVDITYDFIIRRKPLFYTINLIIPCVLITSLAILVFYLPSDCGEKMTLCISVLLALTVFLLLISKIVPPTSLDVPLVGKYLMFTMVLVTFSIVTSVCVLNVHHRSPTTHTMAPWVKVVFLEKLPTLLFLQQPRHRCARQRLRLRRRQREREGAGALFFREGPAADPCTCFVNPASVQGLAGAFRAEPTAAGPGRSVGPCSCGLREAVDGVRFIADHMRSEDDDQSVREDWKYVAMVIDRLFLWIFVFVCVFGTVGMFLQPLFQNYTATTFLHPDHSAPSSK
T2 sequence (P25108 21-457): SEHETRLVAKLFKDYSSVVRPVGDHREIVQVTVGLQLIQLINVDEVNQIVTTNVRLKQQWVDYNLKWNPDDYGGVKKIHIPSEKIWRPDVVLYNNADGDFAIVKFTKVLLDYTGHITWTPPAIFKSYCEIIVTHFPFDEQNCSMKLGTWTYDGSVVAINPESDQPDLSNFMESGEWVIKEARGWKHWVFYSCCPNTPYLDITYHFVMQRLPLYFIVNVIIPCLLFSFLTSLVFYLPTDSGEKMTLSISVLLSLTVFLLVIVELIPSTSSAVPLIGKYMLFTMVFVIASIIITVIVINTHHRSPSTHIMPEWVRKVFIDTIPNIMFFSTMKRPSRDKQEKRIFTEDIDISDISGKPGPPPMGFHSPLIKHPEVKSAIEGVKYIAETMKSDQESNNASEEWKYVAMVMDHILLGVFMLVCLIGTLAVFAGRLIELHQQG
T2 sequence (P25109 24-501): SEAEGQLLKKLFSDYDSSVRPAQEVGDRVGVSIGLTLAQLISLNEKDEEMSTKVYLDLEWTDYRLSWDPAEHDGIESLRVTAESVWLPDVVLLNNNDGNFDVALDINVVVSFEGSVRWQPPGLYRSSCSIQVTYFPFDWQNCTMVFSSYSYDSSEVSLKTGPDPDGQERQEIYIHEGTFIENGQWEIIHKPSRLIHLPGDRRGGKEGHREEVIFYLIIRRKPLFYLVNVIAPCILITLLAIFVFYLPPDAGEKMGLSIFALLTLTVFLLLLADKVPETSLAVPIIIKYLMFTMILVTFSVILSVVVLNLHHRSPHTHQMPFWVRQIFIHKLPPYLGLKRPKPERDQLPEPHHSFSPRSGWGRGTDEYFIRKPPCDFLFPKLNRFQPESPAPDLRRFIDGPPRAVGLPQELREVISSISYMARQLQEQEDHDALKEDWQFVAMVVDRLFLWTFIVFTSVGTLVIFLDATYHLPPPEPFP
T2 sequence (P25110 22-517): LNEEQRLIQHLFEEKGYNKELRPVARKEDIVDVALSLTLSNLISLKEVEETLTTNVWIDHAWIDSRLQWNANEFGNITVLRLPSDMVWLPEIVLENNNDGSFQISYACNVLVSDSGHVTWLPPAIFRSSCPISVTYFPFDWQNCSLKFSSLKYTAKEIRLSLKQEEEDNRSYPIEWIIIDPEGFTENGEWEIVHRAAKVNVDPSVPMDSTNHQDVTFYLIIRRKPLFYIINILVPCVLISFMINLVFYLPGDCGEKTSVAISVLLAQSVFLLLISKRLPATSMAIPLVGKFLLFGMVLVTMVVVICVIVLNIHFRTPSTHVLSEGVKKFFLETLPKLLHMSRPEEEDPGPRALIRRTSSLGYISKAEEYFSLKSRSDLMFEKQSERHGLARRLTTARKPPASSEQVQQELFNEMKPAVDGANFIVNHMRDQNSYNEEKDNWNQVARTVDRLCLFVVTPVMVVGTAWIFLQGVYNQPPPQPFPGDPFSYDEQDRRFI
T1 sequence (P43681 29-627 limits assumed): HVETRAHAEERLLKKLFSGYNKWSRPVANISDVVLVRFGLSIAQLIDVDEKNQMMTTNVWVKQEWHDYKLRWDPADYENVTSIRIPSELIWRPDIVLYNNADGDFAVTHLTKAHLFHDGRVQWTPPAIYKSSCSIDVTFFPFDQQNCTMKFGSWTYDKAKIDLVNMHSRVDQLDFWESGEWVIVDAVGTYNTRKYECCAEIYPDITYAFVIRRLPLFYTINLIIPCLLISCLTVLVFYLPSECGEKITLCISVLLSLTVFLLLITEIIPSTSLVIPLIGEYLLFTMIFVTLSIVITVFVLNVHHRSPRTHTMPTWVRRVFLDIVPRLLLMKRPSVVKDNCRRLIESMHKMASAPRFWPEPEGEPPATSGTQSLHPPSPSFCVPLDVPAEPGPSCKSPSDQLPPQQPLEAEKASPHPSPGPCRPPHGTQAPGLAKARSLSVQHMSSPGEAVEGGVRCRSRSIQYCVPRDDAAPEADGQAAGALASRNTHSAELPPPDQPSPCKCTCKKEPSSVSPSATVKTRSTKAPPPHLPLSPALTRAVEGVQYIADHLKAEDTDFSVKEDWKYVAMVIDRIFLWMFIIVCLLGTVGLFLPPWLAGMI
T1 sequence (P17787 26-502): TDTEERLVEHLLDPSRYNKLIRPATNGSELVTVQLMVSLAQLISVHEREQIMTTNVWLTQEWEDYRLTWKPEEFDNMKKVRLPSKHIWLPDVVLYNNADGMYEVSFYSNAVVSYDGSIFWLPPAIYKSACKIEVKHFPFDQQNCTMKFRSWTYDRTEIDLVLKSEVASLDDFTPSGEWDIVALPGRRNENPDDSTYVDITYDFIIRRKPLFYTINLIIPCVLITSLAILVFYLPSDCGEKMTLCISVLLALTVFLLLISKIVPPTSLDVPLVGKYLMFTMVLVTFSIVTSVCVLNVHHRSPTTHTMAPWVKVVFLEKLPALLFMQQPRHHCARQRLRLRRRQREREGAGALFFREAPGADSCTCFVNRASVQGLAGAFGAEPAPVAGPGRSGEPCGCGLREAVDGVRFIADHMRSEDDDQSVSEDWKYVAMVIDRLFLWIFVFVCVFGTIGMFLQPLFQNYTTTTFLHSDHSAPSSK

For `CN1CCCC1c1cccnc1` (single isomer, unassigned; (-)) [Nicotine, (−)-nicotine, reference compound], the Agonist effect in assay [1] turned out to be 146%.

As for `Clc1ccc(CC/N=C2\SCCN2Cc2ccc(Cl)nc2)cn1` [Compound 15, 3-(6-chloro-3-pyridyl)methyl-2-[2-(6-chloro-3-pyridyl)ethyl]iminothiazolidine], the results for the inhibition constant (Ki) in assay [2] and in assay [3] were 479 µM and 0.086 µM, respectively.
